Consider one compound from patent US20040029841A1, “Purinergic antagonists for treating depression” (priority 2002, published 2004).

This experiment relates to brain bioenergetic status. In words: In vivo 31P magnetic resonance spectroscopy and T2 relaxation times of the brain (axial slice, bilateral basal ganglia) in healthy individuals taking oral SAMe. Also on record: species or system human. The procedure:
This lowering was measured as a decrease in the ratio of beta ATP to total ^31P MRS metabolites and detected using magnetic resonance imaging (see, e.g., U.S. Pat. No. 6,258,794, hereby incorporated by reference).
Five healthy men and seven healthy women self-administered 1600 mg of oral SAMe daily. The effect of SAMe on brain bioenergetic status, membrane integrity, and brain transverse relaxation time (T2) was then examined. In vivo ^31P magnetic resonance spectra and relaxation times were acquired, at baseline and after 14 and 28 days of treatment, from an axial slice (50 mm) encompassing the bilateral basal ganglia using a 1.5-T scanner. […] The changes observed in PCr and β-NTP are consistent with the report that SAMe is involved in the production of creatine, which in turn is phosphorylated to PCr at the expense of β-NTP (Braissant et al., Brain Res. Mol. Brain Res. 2001, 86:193-201).
As changes in T2 relaxation times are inversely related to alterations in steady state blood flow, the decrease in T2 observed in women corresponds to a 3.8% increase in cerebral blood flow.

SMILES strings stand for the structures.

As for `C[S+](CC[C@H](N)C(=O)O)C[C@H]1O[C@@H](n2cnc3c(N)ncnc32)[C@H](O)[C@@H]1O` (some centres unmarked) [SAMe, S-adenosylmethionine], the “circulating levels of ATP (ratio of beta ATP to total 31P MRS metabolites)” value (healthy individuals, on average, magnetic resonance) is on record as “lowering of circulating levels of ATP”. The “mole percent concentrations of phosphocreatine (PCr)” value (healthy men and women, 1600 mg oral SAMe daily, 14 and 28 days of treatment vs baseline, 31P MRS, basal ganglia slice) is given as “significantly higher than at baseline”. Moreover, the “mole percent beta nucleoside triphosphate (β-NTP) levels, predominantly adenosine triphosphate in the brain” value (healthy men and women, 1600 mg oral SAMe daily, after treatment vs baseline, 31P MRS, FIG. 1) is “decreased significantly”. The “brain transverse relaxation time (T2)” value (women vs men at the end of the treatment regimen, 1600 mg oral SAMe daily) is reported as “significantly lower T2 values than men”. Besides, the “increase in cerebral blood flow” value (women, worked out from the decrease in T2 relaxation time) is 3.8%.
